The test system of assay [1] is AR-dependent MMTV-luciferase reporter. In words: Luciferase assay in MDA-kb2 cells. The format is cell-based, human. To be noted: Enza 10, 1, 0.1 μM, DHT, 24 h. On the procedure:
Luciferase Assays. MDA-kb2 cells were plated at 5×10^3 cells/well in 96-well luminescence plates and incubated overnight. Cells were treated with 10-fold serial dilutions of Enza (10, 1, 0.1 μM) and DHT (10, 1, 0.1, 0.01, 0.001 nM) that were prepared in DMSO. Following 24 h of incubation, the luminescence levels were determined with the luciferase assay system (Promega). Three independent experiments were performed and the luminescence values were determined as relative units (R.U.) and normalized to vehicle. Values were expressed as the mean fold induction±standard error (SE).

The next assay concerns MCF7-TGL cells. To be noted: for decrease in whole body luminescence: day 11. On the procedure: Tumor studies. […] Briefly, 10^6 MCF7-TGL cells stably expressing a triple fusion of thymidine kinase, GLP and luciferase (SFG-NES-TGL retroviral vector) for IVIS imaging purposes were mixed with Matrigel (BD Biosciences) and injected into the fourth inguinal mammary fat pad of female, ovariectomized athymic nu/nu or non-obese diabetic (NOD)/SCID mice (Taconic). At time of tumor injection, E2 pellets (60-day release, 1.5 mg/pellet, Innovative Research of America) or DHT (8 mg/pellet, packed and sealed in silastic tubing) were implanted subcutaneously (SQ) at the back of the neck. Tumor burden was assessed using in vivo imaging system (IVIS) or caliper measurements. Once the tumors had established, the mice were matched into groups on the basis of total tumor burden as measured by IVIS or caliper. […] The feed was irradiated and stored at 4° C. before use. […] All mice were given free access to MDV3100 mixed with chow or control chow during the entire study period and at an average of 3.5 g/day food intake. Feed was changed in the animal cages twice a week. Water and feed were prepared ad libitum. Two hours prior to sacrifice, mice were injected IP with 50 mg/kg BrDU (Sigma-Aldrich). Mice were euthanized by CO2 asphyxiation followed by cervical dislocation and blood, tumors, colon, uteri and mammary glands were harvested.
Immunohistochemistry. Slides were deparaffinized in a series of xylenes and ethanols and antigens were heat retrieved in either 10 mM citrate buffer pH 6.0 (BrdU, Ki67) or 10 mM Tris/1 mM EDTA buffer at pH 9.0 (AR, ER, caspase 3). Tissue for BrdU was incubated in 2N HCl followed by 0.1M sodium borate following antigen retrieval. […] Envision-HRP (Dakocytomation) was used for antibody detection. TUNEL staining for apoptosis was performed using the ApopTag Plus Peroxidase In Situ Apoptosis Detection Kit (Millipore), as per manufacturer's instructions. […] For BrdU and TUNEL staining in xenograft studies, three separate 200× fields of each xenograft tumor were taken using an Olympus BX40 microscope (Center Valley, Pa.) with a SPOT Insight Mosaic 4.2 camera and software (Diagnostic Instruments, Inc., Sterling Heights, Mich.). A color threshold (RGB for positive staining nuclei, and HSB for total nuclei) was adjusted manually using ImageJ (National Institutes of Health) for each image, and particles created by the thresholds were analyzed for total area. RGB area was divided by HSB area and multiplied by 100 for each image. For analysis of the nuclear androgen receptor, cleaved caspase 3 and Ki67, slides were scanned at 20× on an Aperio Scan ScanScope XT. Mammary tumor tissue was traced separately for each tumor and necrotic areas of the tumor removed using a negative pen tool in Aperio's Scanscope software. A Nuclear Algorithm was utilized to measure the percent positive cells for the Ki-67 and Androgen Receptor stained slides and the data exported. Cleaved Caspase 3 stained slides were analyzed using a modified Positive Pixel Count algorithm.

Another assay concerns the target T1, ERβ (Homo sapiens, UniProt Q92731).
T1 construct: purchased Ricera Biosciences, LLC (contract assay)
In words: Radioligand binding assay, [3H] Estradiol displacement. To be noted: 0.5 nM [3H] Estradiol; 0.1 μM to 100 μM.

In another assay the target is T2, ERα (Homo sapiens, UniProt P03372).
T2 construct: purchased Ricera Biosciences, LLC (contract assay)
T2 sequence (P03372 1-595): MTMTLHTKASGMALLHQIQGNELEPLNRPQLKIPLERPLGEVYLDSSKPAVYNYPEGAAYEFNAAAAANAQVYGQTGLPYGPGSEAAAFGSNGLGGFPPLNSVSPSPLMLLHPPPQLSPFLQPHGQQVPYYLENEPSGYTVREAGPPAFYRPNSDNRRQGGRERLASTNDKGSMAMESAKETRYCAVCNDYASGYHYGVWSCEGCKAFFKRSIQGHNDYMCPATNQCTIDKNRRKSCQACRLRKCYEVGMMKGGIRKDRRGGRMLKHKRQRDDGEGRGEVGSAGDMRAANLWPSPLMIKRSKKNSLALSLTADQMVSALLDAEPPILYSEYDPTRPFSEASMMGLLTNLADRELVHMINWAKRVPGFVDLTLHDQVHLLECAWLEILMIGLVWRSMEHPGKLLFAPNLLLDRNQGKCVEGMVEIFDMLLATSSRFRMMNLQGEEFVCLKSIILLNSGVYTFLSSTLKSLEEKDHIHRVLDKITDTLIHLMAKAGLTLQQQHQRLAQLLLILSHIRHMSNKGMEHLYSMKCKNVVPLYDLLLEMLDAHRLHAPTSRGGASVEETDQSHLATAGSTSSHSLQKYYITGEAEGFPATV
Described as above. To be noted: 0.5 nM [3H] Estradiol; 0.1 μM to 100 μM.

The next assay concerns PR, SDF-1. In words: qPCR of estrogen responsive genes PR and SDF-1. The assay is classed as cell-based. As to the method:
For FASN, PRLR and GCDFP-15, SYBR green quantitative gene expression analysis was performed using the following primers: FASN [NT] ID NO: 1), FASN […] ID NO: 2); PRLR [NT] ID NO: 3), PRLR […] ID NO: 4); […] ID NO: 5), […] ID NO: 6); 18[…] ID NO: 7), 18[…] ID NO: 8). For PR and SDF-1, taqman real time PCR was performed using validated primer/probe sets from Applied Biosystems (assay IDs: PR Hs01556702_ml, SDF-1 Hs00171022 ml, 18S Hs99999901_sl). Relative gene expression was calculated using the comparative Ct method and values were normalized to 18S.
For orientation: Quantitative PCR measures a nucleic acid by following its amplification.

In another assay the test system is breast cancer. In words: Tamoxifen study: adjuvant tamoxifen cohort, Kaplan-Meier by AR:ER ratio. The format is in vivo, female patients.
[2] abbreviates: E2 pellet, chow 50 mg/kg enzalutamide or tamoxifen pellet.

T1 sequence (Q92731 whole entry): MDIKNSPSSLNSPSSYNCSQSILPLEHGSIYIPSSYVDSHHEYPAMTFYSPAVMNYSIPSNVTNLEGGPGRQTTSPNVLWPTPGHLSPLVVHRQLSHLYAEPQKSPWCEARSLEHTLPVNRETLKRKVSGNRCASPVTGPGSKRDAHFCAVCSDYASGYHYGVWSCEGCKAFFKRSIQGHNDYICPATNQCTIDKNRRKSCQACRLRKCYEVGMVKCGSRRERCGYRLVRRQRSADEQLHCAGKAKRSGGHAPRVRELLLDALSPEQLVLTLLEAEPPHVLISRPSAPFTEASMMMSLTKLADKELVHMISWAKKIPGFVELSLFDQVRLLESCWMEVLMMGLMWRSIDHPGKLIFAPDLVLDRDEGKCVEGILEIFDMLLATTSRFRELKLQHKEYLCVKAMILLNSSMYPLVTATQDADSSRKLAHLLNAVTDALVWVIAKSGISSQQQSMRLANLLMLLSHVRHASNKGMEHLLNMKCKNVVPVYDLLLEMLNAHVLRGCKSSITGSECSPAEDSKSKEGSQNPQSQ

As for `CNC(=O)c1ccc(N2C(=S)N(c3ccc(C#N)c(C(F)(F)F)c3)C(=O)C2(C)C)cc1F` [enzalutamide], the “activation of androgen responsive luciferase reporter” value in assay [1] is listed as “inhibited activation of the luciferase construct in a dose dependent manner”. Further, in the assay with MCF7-TGL cells (DHT pellet, chow 50 mg/kg), the “decrease in AR nuclear localization in tumors” value is 92.5% and the “increase in apoptotic cells (TUNEL staining)” value worked out at 50%. For the same compound, the “decrease in luminescence as compared to the DHT group” value with MCF7-TGL cells (DHT pellet, chow containing 50 mg/kg enzalutamide, day 19, IVIS) was 83.2%. In addition, the tumor burden entry in the assay with MCF7-TGL cells (DHT pellet, enzalutamide by oral gavage) is “decreased in a dose dependent manner”. Besides, the “apoptosis under E2-stimulated growth conditions” value in the assay with MCF7-TGL cells (E2 pellet) was “did not induce apoptosis”. The “decrease in whole body luminescence” value with MCF7-TGL cells (setting [2]) was 70.3%. Besides, the “binding to ERβ” value on ERβ is given as “did not significantly bind”. Moreover, at ERα, the “binding to ERα” value is given as “did not significantly bind”. The “E2-induced upregulation of PR and SDF-1 mRNA” value with PR, SDF-1 is recorded as “inhibited”.

For `CC/C(=C(\c1ccccc1)c1ccc(OCCN(C)C)cc1)c1ccccc1` [tamoxifen], in the assay with breast cancer (AR:ER<1.3), the “mean time to failure” value is reported as 45+/−2.3 months and the “median time to failure” value is on record as greater than 120 months. For the same compound, the “median time to failure” value in the assay on breast cancer (AR:ER>=1.3) is recorded as 30+/−2 months. Besides, the “mean time to failure” value in the assay on breast cancer (higher AR:ER ratio group (cut point 1.3)) is reported as 29+/−4.3 months. Moreover, in the assay on MCF7-TGL cells (setting [2]), the “decrease in cell proliferation compared to the E2 group (BrdU incorporation)” value was found to be 46.4% and the “decrease in whole body luminescence” value worked out at 59.9%.
